Patent publication EP3722296B1, “DIHYDRONAPHTHYRIDINES AND RELATED COMPOUNDS USEFUL AS KINASE INHIBITORS FOR THE TREATMENT OF PROLIFERATIVE DISEASES” (Deciphera Pharmaceuticals, LLC, priority 2012, dated 2013)
pIC50: −log10 of the molar value.

Columns and labels:
GIST T1 cells = test: GIST T1 Cell Proliferation Assay; format: cell-based; conditions: Homo sapiens, GISTT1, 72 h, 68 hours + 4 hours resazurin
Procedure: GIST48, GIST430, and GIST882 cells were obtained from J. Fletcher (Brigham and Women's Hospital, Boston, MA). GIST T1 cells were obtained from B. Rubin (Cleveland Clinic, Cleveland, OH) and Professor Takahiro Taguchi (Kochi Medical School, Nankoku, Kochi, Japan). Briefly, GIST48 and GIST 882 cells were grown in RPMI 1640 medium supplemented with 15% characterized fetal bovine serum (Invitrogen, Carlsbad, CA), 1 unit/mL penicillin G, 1 µg/ml streptomycin, and 0.29 mg/mL L-glutamine at 37 °C, 5% CO2, and 95% humidity. GIST430 cells were grown in Ham's F10 medium supplemented with 15% characterized fetal bovine serum (Invitrogen, Carlsbad, CA), 30 mg/L bovine pituitary extract (BD Biosciences, San Jose, CA), 0.5% Mito+ serum extender (BD Biosciences, San Jose, CA), 1 unit/mL penicillin G, 1 µg/ml streptomycin, and 0.29 mg/mL L-glutamine at 37 °C, 5%CO2, 95% humidity. GIST T1 cells were grown in DMEM medium supplemented with 10% characterized fetal bovine serum (Invitrogen, Carlsbad, CA), 1 unit/mL penicillin G, 1 µg/ml streptomycin, and 0.29 mg/mL L-glutamine at 37 °C, 5% CO2, and 95% humidity.
A serial dilution of test compound was dispensed into a 384-well black clear bottom plate (Corning, Corning, NY). One thousand two-hundred fifty cells were added per well in 50 µL complete growth medium. Plates were incubated for 68 hours at 37 °C, 5% CO2, 95% humidity. At the end of the incubation period 10 µL of a 440 µM solution of resazurin (Sigma, St. Louis, MO) in PBS was added to each well and incubated for an additional 4 hours at 37 °C, 5% CO2, 95% humidity. Plates were read on a Synergy2 reader (Biotek, Winooski, VT) using an excitation of 540 nm and an emission of 600 nm.

c-KIT D816V kinase = target: T1, c-KIT D816V kinase (Homo sapiens, UniProt P10721, D816V); test: c-KIT D816V kinase Assay; format: biochemical; conditions: enzymatic assay, ATP 200 uM
T1 construct: residues T544-V976 with N-terminal GST fusion; purchased deCODE Biostructures
T1 sequence (P10721 544-976 D816V): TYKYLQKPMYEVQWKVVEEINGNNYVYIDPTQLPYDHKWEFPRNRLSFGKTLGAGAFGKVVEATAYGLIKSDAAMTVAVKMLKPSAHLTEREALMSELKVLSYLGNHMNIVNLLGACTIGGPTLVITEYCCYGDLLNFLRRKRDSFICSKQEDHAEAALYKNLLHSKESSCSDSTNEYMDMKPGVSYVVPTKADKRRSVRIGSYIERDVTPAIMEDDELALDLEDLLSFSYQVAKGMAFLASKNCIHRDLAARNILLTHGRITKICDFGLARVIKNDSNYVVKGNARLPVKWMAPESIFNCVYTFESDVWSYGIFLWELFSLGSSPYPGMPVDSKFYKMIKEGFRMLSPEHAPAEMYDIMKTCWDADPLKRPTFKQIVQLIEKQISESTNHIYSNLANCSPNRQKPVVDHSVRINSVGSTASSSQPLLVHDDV
Procedure: (§1) In this assay, the oxidation of NADH (measured by decrease in absorbance at 340 nm) was continuously monitored spectrophotometrically. […] The inhibition reaction was started by mixing serial diluted test compound with the above reaction mixture. The absorption at 340 nm was monitored continuously for 5 hours at 30 °C on Synergy 2 plate reader (BioTech).
(§2) The protein construct was prepared by deCODE Biostructures using procedures known in the art. The construct contains residues T544-V976 of cKit, an N-terminal tag, a GST-fusion sequence and a TEV cleavage site. This construct is identical to Seq ID no.

c-KIT kinase = c-KIT kinase (Homo sapiens, UniProt P10721); test: c-KIT kinase Assay; format: biochemical; parameters: cKIT residues T544-V976; GST (N); TEV cleavage site (internal); purchased deCODE Biostructures; conditions: enzymatic assay, ATP 200 µM; read-out: KIT (wt) IC50
c-KIT kinase, sequence (P10721 544-976): as the sequence (P10721 544-976 D816V) above, with V273D counted along it
Procedure: In this assay, the oxidation of NADH (measured by decrease in absorbance at 340 nm) was continuously monitored spectrophotometrically. […] The absorption at 340 nm was monitored continuously for 2 hours at 30 °C on Synergy 2 (BioTeK). The reaction rate was calculated using the 0 to 1 h time frame. Percent inhibition was obtained by comparison of reaction rate with that of a control (i.e. with no test compound). IC50 values were calculated from a series of percent inhibition values determined at a range of inhibitor concentrations using software routines as implemented in the GraphPad Prism software package. The protein construct was prepared by deCODE Biostructures using procedures known in the art. The construct contains […] of cKit, an N-terminal tag, a GST-fusion sequence and a TEV cleavage site. [formula]

c-KIT V654A kinase = target: T2, c-KIT V654A kinase (Homo sapiens, UniProt P10721, V654A); test: c-KIT V654A Kinase Assay; format: biochemical; conditions: enzymatic assay, ATP 200 µM
T2 construct: residues T544-V976 with N-terminal GST fusion; purchased deCODE Biostructures
T2 sequence (P10721 544-976 V654A): as the sequence (P10721 544-976 D816V) above, with V111A, V273D counted along it
Procedure: as §1, with “6” for “5”
as §2

c-KIT D816H kinase = target: T3, c-KIT D816H kinase (Homo sapiens, UniProt P10721, D816H); test: c-KIT D816H Kinase Assay; format: biochemical; conditions: enzymatic assay, ATP 200 µM
T3 construct: The construct contains residues T544-V976 of cKit; GST (N); TEV cleavage site (internal); purchased deCODE Biostructures
T3 sequence (P10721 544-976 D816H): as the sequence (P10721 544-976 D816V) above, with V273H counted along it
Procedure: as §1, with “6” for “5”, “(BioTech). […] The protein construct was prepared by deCODE Biostructures using procedures known in the art. The construct contains […] of cKit, an N-terminal tag, a GST-fusion sequence and a TEV cleavage site. This construct is identical to Seq ID no.” for “(BioTech).”

c-KIT T670I kinase = target: T4, c-KIT T670I kinase (Homo sapiens, UniProt P10721, T670I); test: c-KIT T670I kinase assay; format: biochemical; conditions: enzymatic assay
T4 construct: The construct contains residues T544-V976 of cKit; GST (N); TEV cleavage site (internal); purchased deCODE Biostructures
T4 sequence (P10721 544-976 T670I): as the sequence (P10721 544-976 D816V) above, with T127I, V273D counted along it
Procedure: In this assay, the oxidation of NADH (measured by decrease in absorbance at 340 nm) was continuously monitored spectrophotometrically. […] The inhibition reaction was started by mixing serial diluted test compound with the above reaction mixture. The absorption at 340 nm was monitored continuously for 5 hours at 30 °C on Synergy 2 plate reader (BioTech). […] The protein construct was prepared by deCODE Biostructures using procedures known in the art. The construct contains […] of cKit, an N-terminal tag, a GST-fusion sequence and a TEV cleavage site. This construct is identical to Seq ID no. 1 except for the T670I mutation. [formula] [formula]

Row | pIC50 (c-KIT D816V kinase) | pIC50 (c-KIT kinase) | pIC50 (c-KIT V654A kinase) | pIC50 (c-KIT D816H kinase) | pIC50 (c-KIT T670I kinase) | SMILES | pIC50 (GIST T1 cells)
1 | 7.00 to 8.00 | > 8.00 | 7.00 to 8.00 | 7.00 to 8.00 | 7.00 to 8.00 | CCn1c(=O)c(-c2cc(NC(=O)Nc3ccccc3)c(F)cc2Cl)cc2cnc(NC(=O)N3CC[C@H](N(C)C)C3)cc21 [Example 96, (S)-N-(3-(2-chloro-4-fluoro-5-(3-phenylureido)phenyl)-1-ethyl-2-oxo-1,2-dihydro-1,6-naphthyridin-7-yl)-3-(dimethylamino)pyrrolidine-1-carboxamide] | > 8.00
2 | > 8.00 | 7.00 to 8.00 | 7.00 to 8.00 | 7.00 to 8.00 | 7.00 to 8.00 | CC(C)n1c(=O)c(-c2cc(NC(=O)Nc3ccccc3)c(F)cc2Cl)cc2cnc(NC(=O)N(C)C)cc21 [Example 103, 3-(3-(2-chloro-4-fluoro-5-(3-phenylureido)phenyl)-1-isopropyl-2-oxo-1,2-dihydro-1,6-naphthyridin-7-yl)-1,1-dimethylurea] | 7.00 to 8.00
3 | 7.00 to 8.00 | 7.00 to 8.00 | 7.00 to 8.00 | 7.00 to 8.00 | 7.00 to 8.00 | CCn1c(=O)c(-c2cc(NC(=O)Nc3ccccc3)c(F)cc2Br)cc2cnc(NC(=O)N(C)C)cc21 [Example 105, 3-(3-(2-bromo-4-fluoro-5-(3-phenylureido)phenyl)-1-ethyl-2-oxo-1,2-dihydro-1,6-naphthyridin-7-yl)-1,1-dimethylurea] | > 8.00

Continued, compound first:

Row | SMILES | pIC50 (c-KIT D816V kinase) | pIC50 (c-KIT kinase) | pIC50 (c-KIT V654A kinase) | pIC50 (c-KIT D816H kinase) | pIC50 (c-KIT T670I kinase) | pIC50 (GIST T1 cells)
4 | CCn1c(=O)c(-c2cc(NC(=O)Nc3ccc(F)c(CN4CCN(C)CC4)c3)c(F)cc2C)cc2cnc(N)cc21 [Example 93, 1-(5-(7-amino-1-ethyl-2-oxo-1,2-dihydro-1,6-naphthyridin-3-yl)-2-fluoro-4-methylphenyl)-3-(4-fluoro-3-((4-methylpiperazin-1-yl)methyl)phenyl)urea] | 6.00 to 7.00 | 7.00 to 8.00 | 6.00 to 7.00 | 7.00 to 8.00 | 7.00 to 8.00 | 7.00 to 8.00
5 | CCn1c(=O)c(-c2cc(NC(=O)Nc3csc4ccccc34)c(F)cc2C)cc2cnc(NC(=O)N(C)C)cc21 [Example 104, 3-(3-(5-(3-(benzo[b]thiophen-3-yl)ureido)-4-fluoro-2-methylphenyl)-1-ethyl-2-oxo-1,2-dihydro-1,6-naphthyridin-7-yl)-1,1-dimethylurea] | 7.00 to 8.00 | 7.00 to 8.00 | 6.00 to 7.00 | 7.00 to 8.00 | 7.00 to 8.00 | 7.00 to 8.00
6 | CCn1c(=O)c(-c2cc(NC(=O)Nc3cccc(F)c3)c(F)cc2C)cc2cnc(NC(=O)N(C)C)cc21 [Example 106, 3-(1-ethyl-3-(4-fluoro-5-(3-(3-fluorophenyl)ureido)-2-methylphenyl)-2-oxo-1,2-dihydro-1,6-naphthyridin-7-yl)-1,1-dimethylurea] | 7.00 to 8.00 | 7.00 to 8.00 | 7.00 to 8.00 | > 8.00 | 7.00 to 8.00 | > 8.00
7 | CCn1c(=O)c(-c2cc(NC(=O)Nc3ccc(F)c(CN4CCN(C)CC4)c3)c(F)cc2C)cc2cnc(NC=O)cc21 [Example 100, N-(1-ethyl-3-(4-fluoro-5-(3-(4-fluoro-3-((4-methylpiperazin-1-yl)methyl)phenyl)ureido)-2-methylphenyl)-2-oxo-1,2-dihydro-1,6-naphthyridin-7-yl)formamide] | 6.00 to 7.00 | 7.00 to 8.00 | 6.00 to 7.00 | 6.00 to 7.00 | 6.00 to 7.00 | 7.00 to 8.00
8 | CC(C)n1c(=O)c(-c2cc(NC(=O)Nc3cccc(F)c3)c(F)cc2Cl)cc2cnc(NC(=O)N(C)C)cc21 [Example 98, 3-(3-(2-chloro-4-fluoro-5-(3-(3-fluorophenyl)ureido)phenyl)-1-isopropyl-2-oxo-1,2-dihydro-1,6-naphthyridin-7-yl)-1,1-dimethylurea] | > 8.00 | 7.00 to 8.00 | 7.00 to 8.00 | 7.00 to 8.00 | 7.00 to 8.00 | > 8.00
